Data published in US20110039920A1, “INHIBITORS OF IKK-BETA SERINE-THERONINE PROTEIN KINASE” (CHROMA THERAPEUTICS LTD., priority 2008, published 2011).

Columns and labels:
[1] = test system: human whole blood TNFα release; assay: LPS-stimulation of human whole blood, TNF-α by ELISA; format: cell-based; conditions: inhibitor 2 hrs before LPS 100 ng/ml, 6 hrs, read-out: Inhibitor activity versus human whole blood TNFα release
Protocol: Whole blood was taken by venous puncture using heparinised vacutainers (Becton Dickinson) and diluted in an equal volume of RPMI1640 tissue culture media (Sigma). 100 μl was plated in V-bottomed 96 well tissue culture treated plates. 2 hrs after the addition of the inhibitor in 100 μl of RPMI1640 media, the blood was stimulated with LPS (E coli strain 005:B5, Sigma) at a final concentration of 100 ng/ml and incubated at 37° C. in 5% CO2 for 6 hrs. TNF-α levels were measured from cell-free supernatants by sandwich ELISA (R&D Systems #QTA00B)

[2] = test system: THP-1 TNFα release; assay: LPS-stimulation of THP-1 cells, TNF-α by ELISA; format: cell-based; conditions: Homo sapiens, inhibitor 2 hrs before LPS 1 μg/ml, 6 hrs, read-out: Inhibitor activity versus THP-1 TNFα release
Protocol: THP-1 cells were plated in 100 μl at a density of 4×10^4 cells/well in V-bottomed 96 well tissue culture treated plates and incubated at 37° C. in 5% CO2 for 16 hrs. 2 hrs after the addition of the inhibitor in 100 μl of tissue culture media, the cells were stimulated with LPS (E coli strain 005:65, Sigma) at a final concentration of 1 μg/ml and incubated at 37° C. in 5% CO2 for 6 hrs. TNF-α levels were measured from cell-free supernatants by sandwich ELISA (R&D Systems #QTA00B)

- IC50 [1]: 500 to 1000 nM
- IC50 [2]: 500 to 1000 nM
Structure (SMILES): C[C@H](NCc1cccc(-c2cc(C(N)=O)c(NC(N)=O)s2)c1)C(=O)OC1CCCC1 [Example 11, Cyclopentyl N-{3-[4-carbamoyl-5-(carbamoylamino)-2-thienyl]benzyl}-L-alaninate]
